We go through three molecules from PMC4363177 (Bioorganic & medicinal chemistry, 2015).

For experiment [1], the target named is human serotonin 5-HT2B receptor (Homo sapiens, UniProt P41595). Briefly: Radioligand competitive displacement binding, 5-HT2B.
Experiment [2] has as its target human serotonin 5-HT2A receptor (Homo sapiens, UniProt P28223). Nature of the experiment: Radioligand competitive displacement binding, 5-HT2A.
A further experiment concerns locomotor activity. The conditions noted are these: administered alone; cited from earlier work.
The test system of the next experiment is 5-HT2A receptor. The conditions noted are these: cited from earlier work.

human serotonin 5-HT2A receptor, sequence (P28223 whole entry): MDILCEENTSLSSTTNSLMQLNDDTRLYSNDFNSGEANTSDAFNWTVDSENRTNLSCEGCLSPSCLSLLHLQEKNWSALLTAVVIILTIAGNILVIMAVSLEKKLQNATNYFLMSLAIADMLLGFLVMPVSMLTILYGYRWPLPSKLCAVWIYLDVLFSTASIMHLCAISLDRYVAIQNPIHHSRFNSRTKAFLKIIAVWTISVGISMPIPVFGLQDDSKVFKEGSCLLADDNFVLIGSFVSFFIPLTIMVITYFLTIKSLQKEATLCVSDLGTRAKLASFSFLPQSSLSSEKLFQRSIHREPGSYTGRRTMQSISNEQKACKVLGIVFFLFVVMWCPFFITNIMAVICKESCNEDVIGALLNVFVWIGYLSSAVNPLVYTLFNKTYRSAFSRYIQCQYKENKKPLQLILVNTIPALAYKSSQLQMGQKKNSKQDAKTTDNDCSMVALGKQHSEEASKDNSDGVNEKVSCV
human serotonin 5-HT2B receptor, sequence (P41595 whole entry): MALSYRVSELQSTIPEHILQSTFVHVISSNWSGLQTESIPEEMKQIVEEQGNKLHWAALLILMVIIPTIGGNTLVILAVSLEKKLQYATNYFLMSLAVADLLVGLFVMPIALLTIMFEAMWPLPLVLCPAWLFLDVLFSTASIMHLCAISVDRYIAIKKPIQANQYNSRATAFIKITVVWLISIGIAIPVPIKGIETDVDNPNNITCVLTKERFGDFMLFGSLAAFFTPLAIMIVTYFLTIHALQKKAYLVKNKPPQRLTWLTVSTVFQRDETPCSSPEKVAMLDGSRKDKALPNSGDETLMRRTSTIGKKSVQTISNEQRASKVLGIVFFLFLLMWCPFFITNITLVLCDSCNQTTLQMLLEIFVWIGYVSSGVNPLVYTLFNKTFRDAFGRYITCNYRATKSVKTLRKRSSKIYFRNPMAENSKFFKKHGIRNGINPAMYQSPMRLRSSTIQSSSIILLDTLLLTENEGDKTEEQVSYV

As to `CN(C)[C@@H]1Cc2ccccc2[C@@H](c2ccccc2)C1` [(+)-trans-PAT, trans-4-phenyl-N,N-dimethyl-1,2,3,4-tetrahydronaphthalen-2-amine], the values for the Ki in experiment [1] and in experiment [2] were 240 nM and 470 nM, respectively.

Regarding `CN1CCN(C2=Nc3cc(Cl)ccc3Nc3ccccc32)CC1` [clozapine], the “effect on locomotor activity” value with locomotor activity is recorded as “suppressed locomotor activity”.

As to `CN(C)[C@@H]1Cc2ccccc2[C@@H](c2ccccc2)C1` (relative stereo) [(−)-trans-PAT, (2S, 4R)-(−)-trans-4-phenyl-N,N-dimethyl-1,2,3,4-tetrahydronaphthalen-2-amine], in the experiment with 5-HT2A receptor, the “functional activity at 5-HT2A receptors” value was “inverse agonist (and competitive antagonist) activity”.

The term Ki denotes a measure of affinity in units of concentration, obtained from inhibition or displacement. Read a high Ki as weaker binding.
